Test system: 4T1 tumors
Experiment: Antitumor study in 4T1 syngeneic tumor model
Type: in vivo, BALB/cJ mice
Experimental: 6-8 weeks old female BALB/cJ and male C57BL/6 mice (Jackson Labs) were used in all experiments. For tumor induction, […] tumor cells/0.1 ml saline (4T1, MDA-MB-231, RInk1, PANC1, MC38) were injected subcutaneously in the shaved right flank of anesthetized (2% isoflurane) mice. Tumor measurements were taken every alternate day and tumor volume was calculated using the following formula: 0.5*length*width*width. For therapeutic assessment or bioluminescent imaging, each bacterial dose contained […] bacteria suspended in 0.1 ml saline was administered intravenously. Lapatinib was suspended in a solution containing 0.5% w/v HPMC and 0.10% w/v Tween 80 and each dose delivered 5 mg/Kg orally. At the study end point the mice were euthanized via carbon dioxide inhalation and cervical dislocation followed by collection of organs. For cytokine profiling, blood withdrawal was performed after a period of 24 hours via the submandibular vein and collected in tubes containing heparin as an anticoagulant (40 U/ml of blood). […]
To test the hypothesis, mice were treated orally with lapatinib at a dose of 5 mg/kg (FIG. 5A). The following 5 treatment groups were assessed in parallel: control mice with saline injections, non-hypervesiculating ECHy+lapatinib, ΔECHy, lapatinib and ΔECHy+lapatinib (n=5). Tumor volume was measured every alternate day. […]

CS(=O)(=O)CCNCc1ccc(-c2ccc3ncnc(Nc4ccc(OCc5cccc(F)c5)c(Cl)c4)c3c2)o1 [lapatinib]
median survival (endpoint tumor size 1000 mm^3, bacteria 10^6 i.v., lapatinib 5 mg/kg oral, anti-PDL1 5 mg/kg): 20 days | tumor growth rate / progression (n=5): comparatively slower

— patent US20260130952A1, “ENGINEERED BACTERIA AND METHODS OF USE IN TUMOR REMODELING” (priority 2021, published 2026)
